According to ChEMBL document CHEMBL1143511, “Antitubercular agents. Part 1: synthesis of phthalimido- and naphthalimido-linked phenazines as new prototype antitubercular agents” (2005):
Values after ≈ are worked out from the molar mass of the structure shown.

What was measured:
Assay type in all cases: functional
[1] = test system: Mycobacterium tuberculosis; test: Minimum inhibitory concentration tested against Mycobacterium tuberculosis resistant clinical isolates; Range:1-4 ug/ml
[2] = test system: Mycobacterium tuberculosis; test: Minimum inhibitory concentration tested against Mycobacterium tuberculosis resistant clinical isolates
[3] = test system: Mycobacterium tuberculosis; test: Minimum inhibitory concentration tested against Mycobacterium tuberculosis resistant clinical isolates; Range 8-16 ug/mL
[4] = test system: Mycobacterium tuberculosis; test: Minimum inhibitory concentration tested against Mycobacterium tuberculosis resistant clinical isolates; Range 8->16 ug/mL

| Compound | MIC [2] [µg/mL] | further results |
| --- | --- | --- |
| O=C1c2ccccc2C(=O)N1CCCCCCN1CCN(CC/N=c2/cc3n(-c4ccc(Cl)cc4)c4ccccc4nc-3cc2Nc2ccc(Cl)cc2)CC1 |  | MIC [1]: 4 µg/mL (≈ 5.18 µM) |
| O=C1c2cccc3cccc(c23)C(=O)N1CCCN1CCN(CC/N=c2/cc3n(-c4ccc(Cl)cc4)c4ccccc4nc-3cc2Nc2ccc(Cl)cc2)CC1 | > 16 |  |
| O=C1c2ccccc2C(=O)N1CCCCN1CCN(CC/N=c2/cc3n(-c4ccc(Cl)cc4)c4ccccc4nc-3cc2Nc2ccc(Cl)cc2)CC1 | > 16 |  |
| O=C1c2cccc3cccc(c23)C(=O)N1CCCCCCN1CCN(CC/N=c2/cc3n(-c4ccc(Cl)cc4)c4ccccc4nc-3cc2Nc2ccc(Cl)cc2)CC1 |  | MIC [3]: 16 µg/mL (≈ 19.4 µM) |
| O=C1c2cccc3cccc(c23)C(=O)N1CCCCCN1CCN(CC/N=c2/cc3n(-c4ccc(Cl)cc4)c4ccccc4nc-3cc2Nc2ccc(Cl)cc2)CC1 | > 16 |  |
| O=C1c2cccc3cccc(c23)C(=O)N1CCCCN1CCN(CC/N=c2/cc3n(-c4ccc(Cl)cc4)c4ccccc4nc-3cc2Nc2ccc(Cl)cc2)CC1 | > 16 |  |
| O=C1c2ccccc2C(=O)N1CCCCCN1CCN(CC/N=c2/cc3n(-c4ccc(Cl)cc4)c4ccccc4nc-3cc2Nc2ccc(Cl)cc2)CC1 |  | MIC [1]: 4 µg/mL (≈ 5.27 µM) |
| O=C1c2ccccc2C(=O)N1CCCN1CCN(CC/N=c2/cc3n(-c4ccc(Cl)cc4)c4ccccc4nc-3cc2Nc2ccc(Cl)cc2)CC1 | > 16 |  |
| NNC(=O)c1ccncc1 [ISONIAZID] |  | MIC [4]: > 16 µg/mL |
